The source of these data is patent US20250213627A1, “RECOMBINANT MICROORGANISM-BASED METHODS AND COMPOSITIONS FOR TREATMENT OF DISEASE” (Baylor College of Medicine, priority 2021, published 2025).

Data set [1] concerns CIA and PIA rat models of RA. In words: Early and late treatment of CIA and PIA by LrS235. To be noted: in vivo. An excerpt: Early and late treatment of CIA and PIA by LrS235. The objective of these experiments is to define the benefits of LrS235 as an oral delivery system for ShK-235 in reducing joint damage and local and systemic inflammation in rat models of RA and compare its efficacy to that of injected ShK-235 and ShK-235 delivered via an enteric-coated capsule. CIA is induced in Lewis rats by two injections at a week interval of an emulsion of porcine collagen II in incomplete Freund's adjuvant at the base of the tail^36,40,65,66. PIA is induced in DA rats by the single injection of pristane at the base of the tail. Clinical signs of CIA are observed in some aspects 3-6 days after the booster injection and clinical signs of PIA are observed in some aspects 2-3 weeks after the pristane injection. Clinical signs are scored daily based on the number of joints affected and the severity of the swelling, as in FIG. 7A. […]
Rats start receiving daily treatments either at onset of clinical signs (early treatment), or 10 days later, at peak of disease severity (late treatment). […] Rats are monitored daily for body weight and scored for clinical signs of arthritis using a standard scoring method^36,40,65,66 described in herein (FIG. 7A). […] At the end of the trials, animals are euthanized for collection of blood, hind limbs, inguinal lymph nodes, and small and large intestines, and the following is measured: […]

Data set [2] is described as follows: Thermal stability of peptide.
A further data set deals with T1, mKv1.3 channels (Mus musculus, UniProt P16390).
T1 construct: expressed in transfected cells
T1 sequence (P16390 whole entry): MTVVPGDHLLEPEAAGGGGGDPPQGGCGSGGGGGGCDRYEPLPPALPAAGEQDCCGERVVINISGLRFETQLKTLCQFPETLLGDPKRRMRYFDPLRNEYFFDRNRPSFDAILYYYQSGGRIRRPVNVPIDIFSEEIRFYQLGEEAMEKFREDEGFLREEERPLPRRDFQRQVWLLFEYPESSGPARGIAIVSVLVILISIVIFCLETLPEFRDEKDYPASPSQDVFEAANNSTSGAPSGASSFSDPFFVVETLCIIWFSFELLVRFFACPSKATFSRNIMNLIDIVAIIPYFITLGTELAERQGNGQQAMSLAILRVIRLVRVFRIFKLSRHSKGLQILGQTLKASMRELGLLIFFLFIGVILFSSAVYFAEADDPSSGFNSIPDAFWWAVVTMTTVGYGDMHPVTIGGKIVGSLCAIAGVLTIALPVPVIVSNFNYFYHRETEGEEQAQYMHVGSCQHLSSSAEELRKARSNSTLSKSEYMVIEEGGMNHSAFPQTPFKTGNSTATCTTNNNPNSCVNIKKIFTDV
In words: Whole-cell patch-clamp block of Kv1.3 currents in L929 fibroblasts stably expressing mKv1.3. The data set is classed as cell-based. The method, then:
In the absence of antibodies directed to ShK-235, the inventors used functional assays to identify and quantify ShK-235 expression and secretion into culture supernatants of LrS235. In more detail, the presence of active peptide was assayed by using whole-cell patch-clamp to test the ability of LrS235 supernatants to block Kv1.3 channels in mouse L929 fibroblasts stably expressing mKv1.3 channels. LrS235 and LrGusA were grown to mid-exponential phase and induced for expression of ShK-235 or GusA, and supernatants were processed as described in the materials and methods. […] Culture supernatant from LrS235 and LrGusA was tested for Kv1.3 channel block and the dose-response curve used to calculate the concentration of ShK-235 in supernatants.
Patch-clamp electrophysiology. To determine the concentration of ShK-235 in the LrS235 supernatants and rat sera, a dose-response of ShK-235 block of Kv1.3 was determined by adding known concentrations of the peptide to naïve rat serum and then testing by whole-cell patch-clamp of mouse L929 fibroblasts stably expressing mKv1.3 channels (45) using a PORT-A-PATCH® automated patch-clamp system (Nanion, Livingston, NJ), as described (16, 46). Culture supernatants and serum samples were then assessed with the same technique, and the dose-response curve was used to determine peptide concentration.

Data set [3] has as its system ShK-235 neutralizing antibodies. The data set can be described thus: Antibody neutralization assay with CIA rat serum. The data set is classed as cell-based. The conditions noted are these: CIA rat serum samples. The method, then:
(§1) To test if ShK-235 produced by LrS235 is immunogenic, the sera of rats were assessed at the end of the 21-day CIA trial shown in FIG. 8 for anti-ShK-235 IgG by ELISA assay. Plates coated with collagen II and HsTX1[R14A] were used as controls. HsTX1[R14A] is another peptide blocker of Kv1.3 with no sequence or structural homology to ShK-235.
Antibody neutralization assays. […] It was then added to the PBMCs loaded with CELLTRACE™ Violet (C34557, ThermoFisher, MA, US), and T cells proliferation was assessed as described above.

For a further data set, the system named is anti-ShK-235 IgG. In words: Immunogenicity ELISA on sera of CIA rats. The data set is classed as in vivo, rat. To be noted: sera at end of 21-day CIA trial. The method, then:
as §1
Immunogenicity assays in rats with CIA. High-protein binding 96-well microplates (3855, ThermoFisher, MA, US) were coated overnight with 10 μg/ml of either porcine collagen II (20031, Chondrex, Woodinville, WI), ShK-235, or HsTX1[R14A], dissolved in PBS. Non-specific binding sites were blocked with PBS+5% skimmed milk and washed with PBS+0.05% Tween 20 before adding serum from the CIA rats, diluted in PBS. After washes, anti-rat IgG antibodies conjugated to horseradish peroxidase (1 μg/ml; Pierce catalog 31471, lot UA280036) were added to all the wells. One-step TMB-ELISA (34028, ThermoFisher, MA, US) was used to detect absorbance on a plate reader at 650 nm.
(An ELISA detects its analyte on a solid surface through an enzyme-linked reagent.)

Structures are written as SMILES. “Also recorded” adds a separate entry of the source.

With `CC[C@H](C)[C@@H]1NC(=O)[C@H](CO)NC(=O)[C@H](Cc2c[nH]cn2)NC(=O)[C@H](CCCCN)NC(=O)[C@@H]2CSSC[C@@H]3NC(=O)[C@H]([C@@H](C)O)NC(=O)[C@H](CCCCN)NC(=O)[C@H](CCCNC(=N)N)NC(=O)[C@H](CSSC[C@H](NC(=O)[C@H](CCCNC(=N)N)NC(=O)[C@H](CO)NC(=O)[C@H](CCCCN)NC(=O)[C@@H]4CCCN4C(=O)[C@H]([C@@H](C)CC)NC(=O)[C@H]([C@@H](C)O)NC(=O)[C@H](CC(=O)O)NC(=O)[C@H]([C@@H](C)CC)NC(=O)[C@@H](NC(=O)[C@H](CO)NC(=O)[C@@H](N)CCCNC(=N)N)CSSC[C@@H](C(=O)N[C@@H](C)C(=O)O)NC(=O)[C@H]([C@@H](C)O)NC(=O)CNC3=O)C(=O)N[C@@H]([C@@H](C)O)C(=O)N[C@@H](C)C(=O)N[C@@H](Cc3ccccc3)C(=O)N[C@@H](CCCCN)C(=O)N2)NC(=O)[C@H](Cc2ccccc2)NC(=O)[C@H](CO)NC(=O)[C@H](CC(C)C)NC(=O)[C@H](CCCNC(=N)N)NC(=O)[C@H](Cc2ccc(O)cc2)NC(=O)[C@H](CCCCN)NC1=O` [ShK-235], the “Effect on incidence and severity of CIA and PIA” value in data set [1] is given as “reduce the incidence”. The Temperature stability result in data set [2] is “up to 80 °C”. Inhibition against mKv1.3 channels was half-maximal at 0.0693 ± 0.024 nM (IC50). Moreover, the “Neutralization of ShK-235 by serum” value in data set [3] is on record as “no neutralization”. Further, the “Anti-ShK-235 IgG titers / immunogenicity” value with anti-ShK-235 IgG is recorded as “very low titers; also recorded: not immunogenic”.
